# Reference: the supplement of paper PMC11061612
# Columns and labels:
# Test in all cases: combination Emax (second highest fraction inhibited in the dose matrix, 72 h); higher = more inhibition; extreme values may be limits of the assay
# [1] = tested on: GP5d (Colorectal Carcinoma)
# Method in brief: (§1)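 Bliss excess equals the observed combination effect minus the expected value EA + EB − EA·EB, where EA and EB are the effects of each agent alone. Combination Emax is the second-highest inhibition within the matrix. Inhibition was scaled from CellTiter-Glo 2.0 luminescence, with 0 set by vehicle wells and 1 by blank wells, after 72 hours of two-drug dosing of cells plated in 1536-well plates.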
# [2] = tested on: HCT-15 (Colorectal Carcinoma)
# Method in brief: as §1
# [3] = tested on: HEC-1 (Endometrial Carcinoma)
# Method in brief: as §1
# [4] = tested on: IST-MES1 (Mesothelioma)
# Method in brief: as §1
# [5] = tested on: LK-2 (Squamous Cell Lung Carcinoma)
# Method in brief: as §1
# [6] = tested on: LXF-289 (Lung Adenocarcinoma)
# Method in brief: as §1
# [7] = tested on: MKN45 (Gastric Carcinoma)
# Method in brief: as §1
# [8] = tested on: NCI-H446 (Small Cell Lung Carcinoma)
# Method in brief: as §1
# [9] = tested on: OAW-42 (Ovarian Carcinoma)
# Method in brief: as §1
# [10] = tested on: OPM-2 (Plasma Cell Myeloma)
# Method in brief: as §1
# [11] = tested on: OVMIU (Ovarian Carcinoma)
# Method in brief: as §1
# [12] = tested on: PANC-03-27 (Pancreatic Carcinoma)
# Method in brief: as §1
# [13] = tested on: PSN1 (Pancreatic Carcinoma)
# Method in brief: as §1
# [14] = tested on: RCM-1 (Colorectal Carcinoma)
# Method in brief: as §1
# [15] = tested on: RKN (Other Solid Carcinomas)
# Method in brief: as §1
# [16] = tested on: SF539 (Glioblastoma)
# Method in brief: as §1
# [17] = tested on: SHP-77 (Small Cell Lung Carcinoma)
# Method in brief: as §1
# [18] = tested on: SK-PN-DW (Other Solid Carcinomas)
# Method in brief: as §1
# [19] = tested on: VAL (B-Cell Non-Hodgkin's Lymphoma)
# Method in brief: as §1
# [20] = tested on: WM793B (Melanoma)
# Method in brief: as §1
Structure (SMILES),combination Emax [1],combination Emax [2],combination Emax [3],combination Emax [4],combination Emax [5],combination Emax [6],combination Emax [7],combination Emax [8],combination Emax [9],combination Emax [10],combination Emax [11],combination Emax [12],combination Emax [13],combination Emax [14],combination Emax [15],combination Emax [16],combination Emax [17],combination Emax [18],combination Emax [19],combination Emax [20]
"NC1(C(=O)N[C@@H](CCO)c2ccc(Cl)cc2)CCN(c2ncnc3[nH]ccc23)CC1 [Capivasertib] + CC(=O)c1c(C)c2cnc(Nc3ccc(N4CCNCC4)cn3)nc2n(C2CCCC2)c1=O [Palbociclib] (first compound max 10 µM, 7x7, partner max 10 µM)",0.648,0.665,0.33,0.303,0.205,0.691,0.628,0.719,0.548,0.987,0.383,0.283,0.484,0.383,0.182,0.578,0.499,0.615,0.626,0.548
"NC1(C(=O)N[C@@H](CCO)c2ccc(Cl)cc2)CCN(c2ncnc3[nH]ccc23)CC1 [Capivasertib] + CC(C)n1c(=O)n(C)c2cnc3cc(F)c(-c4ccc(OCCCN5CCCCC5)nc4)cc3c21 [AZD1390] (first compound max 10 µM, 7x7, partner max 0.3 µM)",0.669,0.312,0.145,0.249,0.0982,0.396,0.432,0.643,0.439,0.931,0.353,0.241,0.256,0.253,0.365,0.617,0.226,0.597,0.609,0.438
"NC1(C(=O)N[C@@H](CCO)c2ccc(Cl)cc2)CCN(c2ncnc3[nH]ccc23)CC1 [Capivasertib] + CCN(CCO)CCCOc1ccc2c(Nc3cc(CC(=O)Nc4cccc(F)c4)[nH]n3)ncnc2c1 [AZD2811] (first compound max 10 µM, 7x7, partner max 1 µM)",0.718,0.394,0.212,0.322,0.925,0.679,0.486,0.958,0.48,0.981,0.381,0.318,0.371,0.197,0.254,0.723,0.271,0.83,0.761,0.527
"NC1(C(=O)N[C@@H](CCO)c2ccc(Cl)cc2)CCN(c2ncnc3[nH]ccc23)CC1 [Capivasertib] + COc1nnc2ccc(N3CCC(c4ccc(OCCN5CCN(C)C(=O)[C@H]5C)cc4)CC3)nn12 [AZD5153] (first compound max 10 µM, 7x7, partner max 1 µM)",0.873,0.717,0.688,0.45,0.422,0.811,0.58,0.97,0.619,1,0.665,0.307,0.256,0.613,0.449,0.707,0.607,0.74,0.806,0.616
"NC1(C(=O)N[C@@H](CCO)c2ccc(Cl)cc2)CCN(c2ncnc3[nH]ccc23)CC1 [Capivasertib] + C[C@@H]1COCCN1C2=NC(=NC(=C2)C3(CC3)[S@](=N)(=O)C)C4=C5C=CNC5=NC=C4 [AZD6738] (first compound max 10 µM, 7x7, partner max 10 µM)",0.829,0.738,0.347,0.522,0.675,0.778,0.753,0.904,0.644,1,0.62,0.521,0.536,0.665,0.272,0.879,0.424,0.925,0.831,0.842
"NC1(C(=O)N[C@@H](CCO)c2ccc(Cl)cc2)CCN(c2ncnc3[nH]ccc23)CC1 [Capivasertib] + Cn1cnc2c(F)c(Nc3ccc(Br)cc3Cl)c(C(=O)NOCCO)cc21 [Selumetinib] (first compound max 10 µM, 7x7, partner max 10 µM)",0.807,0.559,0.239,0.366,0.467,0.62,0.705,0.657,0.548,1,0.585,0.517,0.772,0.668,0.479,0.68,0.384,0.597,0.607,0.768
"Cc1nc(Nc2ncc(C(=O)Nc3c(C)cccc3Cl)s2)cc(N2CCN(CCO)CC2)n1 [Dasatinib] + CC(=O)Nc1cccc(-n2c(=O)n(C3CC3)c(=O)c3c(Nc4ccc(I)cc4F)n(C)c(=O)c(C)c32)c1 [Trametinib] (first compound max 2 µM, 7x7, partner max 1 µM)",0.697,0.71,0.295,0.924,0.63,0.986,0.79,0.444,0.722,0.801,0.798,0.713,0.942,0.798,0.712,0.602,0.172,0.141,0.691,0.705
"COc1cc2ncnc(Nc3ccc(F)c(Cl)c3)c2cc1OCCCN1CCOCC1 [Gefitinib] + CC(C)n1c(=O)n(C)c2cnc3cc(F)c(-c4ccc(OCCCN5CCCCC5)nc4)cc3c21 [AZD1390] (first compound max 10 µM, 7x7, partner max 0.3 µM)",0.281,0.352,0.0663,0.17,0.2,0.0907,0.14,0.314,0.107,0.203,0.532,0.373,0.102,0.41,0.175,0.143,0.0777,0.184,0.527,0.142
"CS(=O)(=O)CCNCc1ccc(-c2ccc3ncnc(Nc4ccc(OCc5cccc(F)c5)c(Cl)c4)c3c2)o1 [Lapatinib] + C[C@@H](Oc1cc(-c2cnn(C3CCNCC3)c2)cnc1N)c1c(Cl)ccc(F)c1Cl [Crizotinib] (first compound max 10 µM, 7x7, partner max 10 µM)",0.979,0.925,0.182,0.686,0.888,1,0.913,0.965,0.732,0.944,0.969,0.835,0.806,0.865,0.294,0.937,0.817,0.938,0.808,0.973
"CC(=O)c1c(C)c2cnc(Nc3ccc(N4CCNCC4)cn3)nc2n(C2CCCC2)c1=O [Palbociclib] + CC1(C)CCC(CN2CCN(c3ccc(C(=O)NS(=O)(=O)c4ccc(NCC5CCOCC5)c([N+](=O)[O-])c4)c(Oc4cnc5[nH]ccc5c4)c3)CC2)=C(c2ccc(Cl)cc2)C1 [Venetoclax] (first compound max 10 µM, 7x7, partner max 1 µM)",0.31,0.526,0.0102,0.253,0.102,0.225,0.486,0.462,0.105,0.38,0.149,0.131,0.437,0.394,0.102,0.262,0.671,0.257,0.997,0.327
"CC(=O)c1c(C)c2cnc(Nc3ccc(N4CCNCC4)cn3)nc2n(C2CCCC2)c1=O [Palbociclib] + Cc1c2c(nn1C)CSCc1cc(n(C)n1)CSc1cc(c3ccccc3c1)OCCCc1c(C(=O)O)n(C)c3c-2c(Cl)ccc13 [AZD5991] (first compound max 10 µM, 7x7, partner max 1 µM)",0.881,0.532,0.153,0.344,0.33,0.6,0.498,0.556,0.223,1,0.27,0.202,0.564,0.327,0.151,0.293,0.646,0.787,0.717,0.432
"CC(=O)c1c(C)c2cnc(Nc3ccc(N4CCNCC4)cn3)nc2n(C2CCCC2)c1=O [Palbociclib] + Cn1cnc2c(F)c(Nc3ccc(Br)cc3Cl)c(C(=O)NOCCO)cc21 [Selumetinib] (first compound max 10 µM, 7x7, partner max 10 µM)",0.768,0.523,0.056,0.334,0.5,0.297,0.694,0.567,0.168,0.448,0.427,0.414,0.702,0.63,0.399,0.336,0.527,0.261,0.599,0.585
"COc1cccc(OCCCN)c1-c1cc(Nc2cnc(C#N)cn2)n[nH]1 [Prexasertib] + CCc1c2c(nc3ccc(O)cc13)-c1cc3c(c(=O)n1C2)COC(=O)[C@]3(O)CC [SN-38] (first compound max 1 µM, 7x7, partner max 0.3 µM)",0.949,0.993,0.894,0.836,0.932,0.787,0.853,1,0.827,0.972,0.571,0.954,0.931,0.887,0.966,1,0.988,0.953,0.961,0.896
